The term melting point denotes the temperature of the solid-liquid transition.

For `CCOc1ccc2cc(-c3nc(C(C)(C)C)[nH]c3-c3ccncc3)ccc2c1`, the melting point fell in the range of 258 to 259 °C.

In the case of `NS(=O)(=O)c1cc(C(=O)O)cc([N+](=O)[O-])c1Oc1ccccc1`, the melting point lay in the range of 255 to 256 °C.

With `Cc1csc2ccc3[nH]c4c(c3c12)CN(C(C)C)CC4`, the melting point lay within 199 to 203 °C.

As for `Cc1cc(C2CC(C)(C)CC(C)(C)C2(O)C#C[Si](C)(C)C)ccc1F` (configuration not stated), the melting point was 76 to 78 °C.

`Nc1ncc(C#Cc2ccccc2)c(NCCOCCO)n1`: the melting point lay within 128 to 129 °C.

In the case of `CCc1c(C(=O)OC(C)C)ncc2[nH]c3ccc4nc(C)sc4c3c12`, the melting point was in the range of 239 to 240 °C.

`COc1cc(OC)nc(NC(=O)NS(=O)(=O)c2sc(Cl)c3c2C(=O)OCC3)n1` yielded a melting point of 110 to 114 °C.

`CC(C(=O)O)c1cc(Cl)c([N+](=O)[O-])cc1Cl` (configuration not stated) returned a melting point of 143 °C.

In turn, `Cc1nccn1CCCC1CCc2onc(-c3ccccc3)c2C1=O` (configuration not stated) registered a melting point of 97 to 99 °C.

In turn, `COC(=O)/C=C/C(=O)O[C@@H](C)C(=O)N1CCOCC1` showed a melting point of 79 to 82 °C.

Compound `c1ccc(Cc2ccccc2Cc2ccccc2)cc1` displayed a melting point of 61 to 67 °C.

Regarding `O=Cc1cccc(-c2cccs2)n1`, the melting point was 48 to 50 °C.

The compound `CCCc1cc(-c2[nH]c3ccccc3c2C)cc(CCC)c1O` returned a melting point of 102 °C.

Regarding `CC1(C)NC(=O)C2CN(CCCC(c3ccc(F)cc3)c3ccc(F)cc3)CCN21` (configuration not stated), the melting point came out at 148 °C.

In turn, `CN(C)C1CCc2[nH]c3ccccc3c2C1` (configuration not stated) displayed a melting point of 138 °C.

Take `CCOC(=O)c1snc(-c2ccc(F)cc2)c1N`: the melting point fell in the range of 137 to 139 °C.

`COC1=C(OC)C(=O)c2cc(NC(C)=O)ccc2C1=O` yielded a melting point of 226 to 228 °C.

Compound `Cc1c(Oc2ccccc2)cccc1Oc1ccccc1` had a melting point of 39 to 41 °C.

Regarding `Nc1c(Cl)cc(C(O)CNCCCCCCOCCSCCc2ccccn2)cc1Cl` (configuration not stated), the melting point fell in the range of 59.5 to 62 °C.

In the case of `COC(=O)c1c(Cl)cc(Cl)cc1NC(=O)CSc1ccc(NC(=O)c2cccnc2)cc1`, the melting point lay within 156 to 159 °C.

As for `Nn1nc(-c2ccc(Cl)cc2)cc1OCCN1CCCCC1`, the melting point worked out at 119 °C.

In turn, `CCOC(=O)COc1ccc([N+](=O)[O-])c(C=C2NC(=O)NC2=O)c1` came in with a melting point of 268 to 270 °C.

With `CC(C)(C)c1ccc(C[C@@H](NC(=O)c2cccc3c2C=CCCC3)[C@@H](O)c2ccc(F)cc2)cc1` (racemic), the melting point fell in the range of 140 to 142 °C.

`CCCc1c(OCCCCc2ccc3cc(OCc4ccccc4)c(OCc4ccccc4)cc3c2)ccc(C(=O)OCc2ccccc2)c1O` showed a melting point of 87 to 89 °C.

As to `O=c1oc(=O)n(CC2CC2)c2ccccc12`, the melting point lay in the range of 118 to 121 °C.

Compound `CC(C)(C)OC(=O)N1CCc2c(n(CCO)c3c(Cl)c(Cl)ccc23)CC1` had a melting point of 117 to 120 °C.

The compound `CN1CCc2ccccc2C(c2ccccc2)C1(C)C` (configuration not stated) registered a melting point of 92 to 93 °C.

On to `Cc1csc(NC(=O)C2=C(O)c3ccc4ccccc4c3S(=O)(=O)N2C)n1`, for which the melting point worked out at 177 °C.

Regarding `CC(C)(C)c1ncc(C(=C(Cl)Cl)C(F)(F)F)cn1`, the melting point worked out at 58 °C.

As for `CN(Cc1ccc(C(=O)O)cc1)c1ccc(Cl)cc1`, the melting point fell in the range of 188 to 191 °C.

In turn, `COc1cccc(Nc2nc(N)nc3c2-c2ccccc2C3)c1` displayed a melting point of 187 °C.

Regarding `COc1cc(N)c(C(=O)N(C)C)cc1OC`, the melting point lay in the range of 94 to 103 °C.

`CCOC(=O)c1ccc(N)cc1Br` registered a melting point of 93 °C.

Consider `CN(Cc1ccccc1)Cc1nc(-c2ncn3c2CN(C)C(=O)c2cc(F)ccc2-3)no1`, for which the melting point fell in the range of 161 to 162 °C.

In turn, `CC(C)(C)OC(=O)N1COC(=O)[C@@H]1CSCc1ccccc1` displayed a melting point of 63 to 65 °C.

Compound `CCCOc1ccccc1-c1[nH]c(=O)c(C(N)=O)cc1C` registered a melting point of 238 to 240 °C.

With `CCOP(=O)(Cc1ccc(NC(=O)/C=C/c2cnoc2-c2ccccc2)cc1)OCC`, the melting point fell in the range of 173 to 174 °C.

Compound `CCN(C(=O)Nc1ccc(OC(F)(F)F)cc1)C1Cc2ccc(SC(C)(C)C(=O)O)cc2C1` (configuration not stated) yielded a melting point of 73 to 77 °C.

In turn, `CCc1ccccc1-c1nc(-c2ccccc2)n[nH]1` gave a melting point of 124 to 126 °C.

`O=C(O)Cc1cnc2c(NC(=O)c3c(Cl)cccc3Cl)cccc2c1` registered a melting point of more than 250 °C.

In turn, `c1ccc(-c2ccc(COc3ccc4c(c3)CCC(CCn3ccnc3)C4)cc2)cc1` (configuration not stated) yielded a melting point of 145 to 146 °C.

With `N=C(N)NC(=O)OCc1ccccc1`, the melting point lay in the range of 120 to 122 °C.

In the case of `Cc1cnc(Cl)c(OCC(O)CNC(C)C)n1` (configuration not stated), the melting point fell in the range of 109 to 110 °C.

On to `O=C(O)c1cc(F)c(F)cc1Nc1ccc(F)cc1F`, for which the melting point lay within 215 to 216 °C.

The compound `O=C(Nc1nccs1)C(CC1CCCC1)c1ccc(F)c(C(F)(F)F)c1` (configuration not stated) yielded a melting point of 125 to 127 °C.

`CC[C@H]1COC(=O)N1c1nc(-c2ccc(Br)cc2)c(F)s1` yielded a melting point of 105 to 107 °C.

`CNC(=O)c1sc(C(C)(C)C)cc1N` came in with a melting point of 230 to 231 °C.

Turning to `O=[N+]([O-])c1ccc(O)c(CO)c1`, the melting point was in the range of 112 to 114 °C.

On to `CC1=C(C(=O)OC(C)C)[C@@H](c2cccc(Cl)c2)NC(=O)N1C(N)=O`, for which the melting point fell in the range of 131 to 133 °C.

`COc1ccc(NC(=O)CCl)c(OC)c1`: the melting point was 90 to 91 °C.

In turn, `CS(=O)(=O)N(Cc1cccnc1)c1ccc(C#N)cc1` came in with a melting point of 73 to 75 °C.

With `CCCCc1nc2cccc(C(=O)NC(C)C)c2n1Cc1ccc(-c2ccccc2-c2nnn[nH]2)cc1`, the melting point was 247 to 249 °C.

Turning to `O=C(O)Cc1c(C(=O)O)c2cc(Oc3ccc(Cl)cc3)ccc2n1-c1ccccc1`, the melting point lay in the range of 202 to 204 °C.

`O=C1N=NN=C2N=CN=C12` displayed a melting point of 230 to 234 °C.

With `CSc1nnc2n1C=Cc1cc(C)ccc1C2`, the melting point is 161 to 162 °C.

As for `CC(=O)OCC1OC(n2ccc(=O)[nH]c2=O)C(Br)C1OC(C)=O` (configuration not stated), the melting point is 69 to 77 °C.

For `CC(C)c1nc2ccccc2cc1S(=O)(=O)c1ccc(O)cc1`, the melting point came to 185 °C.

As to `O=C(O)c1ccc2ccccc2c1OCC(F)(F)F`, the melting point was 172 °C.

For the compound `OC1(c2ccccc2)CSC2=NCN(Cc3ccccc3)CN21` (configuration not stated), the melting point was in the range of 97 to 99 °C.

`CC(C)=CC(O)C(Br)(Br)Br` (configuration not stated) showed a melting point of 81.5 to 82 °C.

`COC(=O)CCc1cnoc1-c1ccc(Cl)c(Br)c1` displayed a melting point of 54 to 55 °C.

`CCOC(=O)c1cc2c(n1CCN)CCCC2` had a melting point of 102 to 104 °C.

Regarding `CC1CN(c2cc3c(cc2F)C(=O)c2nc4ccccc4c(=O)n2-3)CCN1` (configuration not stated), the melting point fell in the range of 225 to 227 °C.

`COc1cc(C(C)=O)ccc1OCCCN1CCN(c2csc3cc(F)ccc23)CC1` yielded a melting point of 172 to 174 °C.

On to `O=C1N(c2cc(Cl)nc(Cl)c2)C(=O)[C@]2(Cc3ccc(OC(F)(F)F)cc3)C[C@@H](c3cc[nH]c3C(=O)C(F)(F)F)CN12`, for which the melting point turned out to be 167 °C.

As for `O=C(CCl)c1scc(Br)c1Br`, the melting point was in the range of 86 to 88 °C.

`O=C(O)c1c2c(nc3ccc(F)cc13)-c1ccc(-c3ccccc3F)cc1CC2`: the melting point is more than 300 °C.

The record behind these values is a melting point compilation (Tetko et al.; mined from patent text by program, amines drawn as free bases though some values may be those of a salt).
